# From the Kinase Knowledgebase extract (Sharma et al. 2016)
# pIC50: −log10 of the molar value.
# Target: PIK3CA (human) (UniProt P42336)
# Test: Assessment of PIK3CA Kinase Activity
# PIK3CA (human), sequence (P42336 whole entry, looked up): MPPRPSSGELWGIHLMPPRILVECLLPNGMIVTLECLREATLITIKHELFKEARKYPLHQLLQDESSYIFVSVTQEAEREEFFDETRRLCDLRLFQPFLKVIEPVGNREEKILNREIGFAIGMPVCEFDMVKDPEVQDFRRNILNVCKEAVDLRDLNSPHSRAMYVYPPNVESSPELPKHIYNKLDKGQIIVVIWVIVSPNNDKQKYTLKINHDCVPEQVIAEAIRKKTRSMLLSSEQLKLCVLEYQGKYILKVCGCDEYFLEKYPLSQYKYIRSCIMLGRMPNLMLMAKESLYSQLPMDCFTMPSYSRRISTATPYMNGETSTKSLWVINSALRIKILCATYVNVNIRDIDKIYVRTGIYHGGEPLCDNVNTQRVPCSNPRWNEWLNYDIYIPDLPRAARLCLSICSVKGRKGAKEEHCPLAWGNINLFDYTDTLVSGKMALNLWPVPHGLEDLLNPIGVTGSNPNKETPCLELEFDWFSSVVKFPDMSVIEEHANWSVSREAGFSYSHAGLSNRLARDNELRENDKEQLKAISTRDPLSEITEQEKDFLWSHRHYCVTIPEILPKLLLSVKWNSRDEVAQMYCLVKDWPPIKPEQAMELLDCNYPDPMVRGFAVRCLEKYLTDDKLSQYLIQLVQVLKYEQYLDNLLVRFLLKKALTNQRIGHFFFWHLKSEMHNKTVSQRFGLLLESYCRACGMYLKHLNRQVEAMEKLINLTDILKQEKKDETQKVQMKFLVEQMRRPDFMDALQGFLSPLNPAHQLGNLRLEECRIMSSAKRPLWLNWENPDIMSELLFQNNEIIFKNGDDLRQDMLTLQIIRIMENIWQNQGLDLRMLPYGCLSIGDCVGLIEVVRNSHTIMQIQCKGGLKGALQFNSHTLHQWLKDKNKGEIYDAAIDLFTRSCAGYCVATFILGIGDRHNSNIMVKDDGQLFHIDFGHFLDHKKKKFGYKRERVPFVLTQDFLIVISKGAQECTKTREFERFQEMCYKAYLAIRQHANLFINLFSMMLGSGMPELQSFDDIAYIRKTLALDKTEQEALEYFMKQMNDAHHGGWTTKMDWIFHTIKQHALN
row,SMILES,pIC50
1,CC(C)Oc1ncccc1-c1ccc2c(c1)-c1nc(-c3ncnn3C(C)C)sc1CCO2,> 6.00
2,CC(C)n1ncnc1-c1nc2c(s1)CCOc1ccc(C3CCN(CC(N)=O)CC3)cc1-2,> 6.00
3,CC(C)n1ncnc1-c1nc2c(s1)CCOc1ccc(-c3ccn(C(C)C)c(=O)c3)cc1-2,> 6.00
4,CC(C)n1ncnc1-c1nc2c(s1)CCOc1cc(C3CN(C(=O)C(C)(C)O)C3)ccc1-2,> 6.00
5,CC(C)n1cnnc1-c1nc2c(s1)CCOc1cc(CNCCO)ccc1-2,> 6.00
6,CC(C)n1ncnc1-c1nc2c(s1)CCOc1cc(C3CN(S(=O)(=O)C(C)C)C3)ccc1-2,> 6.00
7,CN1CCN(C(=O)c2ccc(Cl)c(N(C)C(=O)c3cc4c(s3)-c3ccc(C(=O)NCCS(C)(=O)=O)cc3OCC4)c2)CC1,> 6.00
8,CN(C)CCCOc1ccc(-c2ccc3c(c2)OCCc2sc(-c4ncnn4CC(F)(F)F)nc2-3)cn1,> 6.00
9,Fc1ccc(-n2ncnc2-c2cc3c(s2)-c2nc(NCC4CCCC4)ccc2OCC3)c(F)c1,> 6.00
10,Cc1ccncc1-c1ccc2c(c1)-c1nc(-c3ncnn3C(C)C)sc1CCO2,> 6.00
11,CC(C)(O)Cn1cc(-c2ccc3c(c2)OCCc2sc(N4C(=O)NC(=O)C4(C)C)nc2-3)cn1,> 6.00
12,CC(C)n1ncnc1-c1nc2c(s1)CCOc1ccc(-c3ccc(S(N)(=O)=O)cc3)cc1-2,> 6.00
13,Fc1ccc(-n2ncnc2-c2cc3c(s2)-c2nc(NC4CNC4)ccc2OCC3)c(F)c1,> 6.00
14,CC(C)n1ncnc1-c1nc2c(s1)CCOc1cc(-c3cnn(C(C)(C)C(=O)NC4CN(C)C4)c3)ccc1-2,> 6.00
15,CC(=O)N1CCN(c2ccc3c(n2)-c2sc(-c4ncnn4-c4ccc(F)cc4F)cc2CCO3)CC1,> 6.00
16,Cc1nc(-c2nc3c(s2)CCOc2cc(-c4cnn(C5CN(CCO)C5)c4)ccc2-3)n(C(C)C)n1,> 6.00
17,CN1CCC(CNc2ccc3c(n2)-c2sc(-c4ncnn4-c4ccc(F)cc4F)cc2CCO3)CC1,> 6.00
18,CN(C)C(=O)c1nc2c(s1)CCOc1cc(-c3cn[nH]c3)ccc1-2,> 6.00
19,CC(C)n1ncnc1-c1nc2c(s1)CCOc1ccc(-c3cccn(C(C)C)c3=O)cc1-2,> 6.00
20,O=C(c1nc2c(s1)CCOc1cc(-c3cn[nH]c3)ccc1-2)N1CCC(O)CC1,> 6.00
21,COc1ncccc1-c1ccc2c(c1)-c1nc(C(=O)N(CCO)C(C)C)sc1CCO2,> 6.00
22,CN(CCO)C(=O)c1ccc(Cl)c(N(C)C(=O)c2cc3c(s2)-c2ccc(C(=O)NCCS(C)(=O)=O)cc2OCC3)c1,> 6.00
23,CC(C)N(CCO)C(=O)c1nc2c(s1)CCOc1cc(-c3ccc(N4CCOCC4)nc3)ccc1-2,> 6.00

row,SMILES,pIC50
1,Cc1cc(-c2ccc3c(n2)-c2sc(-c4ncnn4-c4ccc(F)cc4F)cc2CCO3)cnc1N1CCOCC1,> 6.00
2,Cc1nc(-c2nc3c(s2)CCOc2cc(C4CN(C[C@H](O)CO)C4)ccc2-3)n(C(C)C)n1,> 6.00
3,N#C[C@@H]1CCCN1C(=O)c1nc2c(s1)CCOc1cc(-c3cn[nH]c3)ccc1-2,> 6.00
4,O=C(c1nc2c(s1)CCOc1cc(-c3cn[nH]c3)ccc1-2)N1CCCC1,> 6.00
5,CC(C)n1nc(CO)nc1-c1nc2c(s1)CCOc1ccccc1-2,> 6.00
6,CCN1[C@H](C)CN(c2ccc3c(n2)-c2sc(-c4ncnn4-c4ccc(F)cc4F)cc2CCO3)C[C@@H]1C,> 6.00
7,O=C(c1nc2c(s1)CCOc1cc(-c3cn[nH]c3)ccc1-2)N1CCC[C@@H]1Cc1ccccn1,> 6.00
8,CC(C)n1ncnc1-c1nc2c(s1)CCOc1ccc(-c3cccn(CCN4CCOCC4)c3=O)cc1-2,> 6.00
9,COCCn1ccc(-c2ccc3c(c2)-c2nc(-c4ncnn4C(C)C)sc2CCO3)cc1=O,> 6.00
10,CC(C)n1ncnc1-c1nc2c(s1)CCOc1cc(-c3cnc(CO)n3C)ccc1-2,> 6.00
11,CN1CCC(n2ncnc2-c2nc3c(s2)CCOc2cc(-c4cnn(CCO)c4)ccc2-3)CC1,> 6.00
12,CC(=O)N1CCN(C(=O)c2nc3c(s2)CCOc2cc(-c4cn[nH]c4)ccc2-3)CC1,> 6.00
13,C[C@@H]1CCN(C(=O)c2nc3c(s2)CCOc2cc(-c4cn[nH]c4)ccc2-3)C1,> 6.00
14,CN1CC(C)(C)N(c2nc3c(s2)CCOc2cc(-c4cnn(CC(C)(C)O)c4)ccc2-3)C1=O,> 6.00
15,CS(=O)(=O)N1CCN(C(=O)c2nc3c(s2)CCOc2cc(-c4cn[nH]c4)ccc2-3)CC1,> 6.00
16,C[C@@H]1CN(C2CCN(C(=O)c3nc4c(s3)CCOc3cc(-c5cn[nH]c5)ccc3-4)CC2)C[C@@H](C)O1,> 6.00
17,CC(=O)N1CCC(Nc2ccc3c(n2)-c2sc(-c4ncnn4-c4ccc(F)cc4F)cc2CCO3)CC1,> 6.00
18,CN(C[C@H]1Cc2ccccc2O1)C(=O)c1nc2c(s1)CCOc1cc(-c3cn[nH]c3)ccc1-2,> 6.00
19,CN(C)[C@@H]1CCN(C(=O)c2nc3c(s2)CCOc2cc(-c4cn[nH]c4)ccc2-3)C1,> 6.00
20,CN(C[C@@H](O)CO)C(=O)c1nc2c(s1)CCOc1cc(-c3cn[nH]c3)ccc1-2,> 6.00
21,CC(C)n1ncc(CO)c1-c1cc2c(s1)-c1nc(Cl)ccc1OCC2,> 6.00
22,CCN(CC)C(=O)c1nc2c(s1)CCOc1cc(-c3cn[nH]c3)ccc1-2,> 6.00
23,Fc1ccc(-n2ncnc2-c2cc3c(s2)-c2nc(NC4COC4)ccc2OCC3)c(F)c1,> 6.00
